Measured values from patent US20110251233A1, “FORMULATION FOR THE BUCCAL TRANSMUCOSAL ADMINISTRATION OF SETRONS” (priority 2008, published 2011).

Experiment: dissolution of ondansetron in hydroalcoholic solution
Type: physicochemical
Settings: approximately 50° ethanol
Protocol: By way of example, the coefficient of dissolution of ondansetron in ethanol allows complete dissolution of said active ingredient at the rate of 2 milligrams (mg) of ondansetron per 0.75 milliliters (mL) of approximately 50° ethanol. This coefficient may be modulated as a function of the degree of alcohol and the water/ethanol ratio used.

In the case of `Cc1nccn1CC1CCc2c(c3ccccc3n2C)C1=O` (stereo not shown) [ondansetron], the “coefficient of dissolution (complete dissolution)” value is reported as 2 mg per 0.75 mL.
